In US20230113037A1 (Bayer Aktiengesellschaft, priority 2019, published 2023):
Like-named read-outs stand apart in the source and are kept apart here.

Columns and labels:
AHR [1] = target: T1, AHR (Homo sapiens, UniProt P35869); test: In vitro assay 1: antagonism in human cell line (AHR transactivation, firefly luciferase reporter, kynurenic acid prestimulated); type: cell-based; settings: AHR Antagonism Human IC50 [M]
T1 construct: U87 MG glioblastoma cells (ATCC #HTB-14) endogenously expressing AHR; endogenous in cells; host or cells: U87 MG glioblastoma cells (ATCC #HTB-14)
T1 sequence (P35869 11-848): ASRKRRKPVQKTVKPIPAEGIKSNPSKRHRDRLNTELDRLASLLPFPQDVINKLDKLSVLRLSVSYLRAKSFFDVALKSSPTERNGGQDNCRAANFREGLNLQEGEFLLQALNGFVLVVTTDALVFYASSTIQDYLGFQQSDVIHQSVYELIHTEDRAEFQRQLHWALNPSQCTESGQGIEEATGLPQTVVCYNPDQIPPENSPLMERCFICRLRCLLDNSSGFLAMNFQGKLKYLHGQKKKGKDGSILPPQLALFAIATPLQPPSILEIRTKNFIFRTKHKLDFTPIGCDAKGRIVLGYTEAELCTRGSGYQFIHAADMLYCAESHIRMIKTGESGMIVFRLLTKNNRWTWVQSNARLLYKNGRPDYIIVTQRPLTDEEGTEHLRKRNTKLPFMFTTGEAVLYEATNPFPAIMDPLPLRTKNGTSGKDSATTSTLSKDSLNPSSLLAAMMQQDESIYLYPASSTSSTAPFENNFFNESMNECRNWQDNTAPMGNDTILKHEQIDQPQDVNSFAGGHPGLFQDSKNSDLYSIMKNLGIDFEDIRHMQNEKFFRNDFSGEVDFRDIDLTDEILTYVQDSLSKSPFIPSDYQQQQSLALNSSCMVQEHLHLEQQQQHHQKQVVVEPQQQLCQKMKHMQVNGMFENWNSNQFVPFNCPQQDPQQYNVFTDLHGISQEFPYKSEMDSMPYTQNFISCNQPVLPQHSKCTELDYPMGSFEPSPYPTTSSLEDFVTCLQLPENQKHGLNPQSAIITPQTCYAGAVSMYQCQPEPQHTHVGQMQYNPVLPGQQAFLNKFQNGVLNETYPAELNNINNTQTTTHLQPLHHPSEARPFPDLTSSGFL
How it was run: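 Antagonism is measured against kynurenic acid prestimulation in U87 MG glioblastoma cells carrying stable DRE-luciferase and Renilla reporters. Positive inhibition control: 150 μM kynurenic acid with 5 μM staurosporine. Values are normalized to controls; repeats are averaged or given as medians.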

AHR [2] = target: T2, AHR (Mus musculus, UniProt P30561); test: In vitro assay 3: antagonism in mouse cell line (AHR transactivation, firefly luciferase reporter, kynurenic acid prestimulated); type: cell-based
T2 sequence (P30561 1-848 P471L/N533S/M589L): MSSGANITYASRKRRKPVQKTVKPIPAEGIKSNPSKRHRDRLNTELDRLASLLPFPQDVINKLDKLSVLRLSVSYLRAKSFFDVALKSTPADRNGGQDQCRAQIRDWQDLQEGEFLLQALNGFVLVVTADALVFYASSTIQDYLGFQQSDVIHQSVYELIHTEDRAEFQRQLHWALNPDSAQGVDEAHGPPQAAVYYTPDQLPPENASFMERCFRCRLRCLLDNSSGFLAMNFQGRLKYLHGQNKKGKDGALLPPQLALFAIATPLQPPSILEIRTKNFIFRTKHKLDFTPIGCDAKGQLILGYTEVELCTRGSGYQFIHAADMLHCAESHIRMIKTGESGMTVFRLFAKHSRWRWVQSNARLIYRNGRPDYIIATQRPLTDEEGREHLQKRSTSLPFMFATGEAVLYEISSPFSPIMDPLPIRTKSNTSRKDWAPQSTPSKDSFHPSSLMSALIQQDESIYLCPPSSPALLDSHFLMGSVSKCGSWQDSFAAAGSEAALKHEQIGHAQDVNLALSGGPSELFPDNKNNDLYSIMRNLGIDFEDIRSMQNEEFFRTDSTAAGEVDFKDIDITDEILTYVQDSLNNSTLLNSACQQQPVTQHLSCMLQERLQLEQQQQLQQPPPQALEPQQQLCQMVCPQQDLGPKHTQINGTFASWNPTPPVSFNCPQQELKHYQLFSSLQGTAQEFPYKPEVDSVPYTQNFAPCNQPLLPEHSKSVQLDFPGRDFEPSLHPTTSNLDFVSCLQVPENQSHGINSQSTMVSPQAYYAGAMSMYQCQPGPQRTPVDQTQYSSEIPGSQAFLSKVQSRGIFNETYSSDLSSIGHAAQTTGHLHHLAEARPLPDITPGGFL
How it was run: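 Antagonism read as reduced firefly luciferase signal (SteadyGlo) from a stably transfected AHR/DRE reporter in a mouse line prestimulated with kynurenic acid. Data normalized to controls, the full-inhibition control being cells without kynurenic acid; multiple determinations given as average or median values.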

[3] = mouse Hepa 1c1c7 cells, 200 μM kynurenic acid, 20 hours, read-out: AHR Antagonism Mouse IC50
[4] = read-out: AHR Antagonism Mouse IC50, mouse Hepa 1c1c7 cells, 200 μM kynurenic acid, 20 hours

Row | Structure (SMILES) | IC50 (AHR [1]) | IC50 (AHR [2]; [3]) | IC50 (AHR [2]; [4])
1 | O=C1NCCCCCC1Nc1nc2ccccc2c2nc(-c3cccc(OC(F)(F)F)c3)nn12 (stereo not shown) [Example 447, 3-({2-[3-(trifluoromethoxy)phenyl][1,2,4]triazolo[1,5-c]quinazolin-5-yl}amino)azocan-2-one] | 2.27e-08 M | 11.3 nM | –
2 | CSc1cccc(-c2nc3c4ccccc4nc(N[C@@H]4CCCCNC4=O)n3n2)c1 [Example 449, (3R)-3-({2-[3-(methylsulfanyl)phenyl][1,2,4]triazolo[1,5-c]quinazolin-5-yl}amino)azepan-2-one] | 1.73e-08 M | 21 nM | –
3 | CC[C@H](Nc1nc2ccccc2c2nc(-c3ccccc3S(C)(=O)=O)nn12)C(N)=O [Example 450, (2S)-2-({2-[2-(methanesulfonyl)phenyl][1,2,4]triazolo[1,5-c]quinazolin-5-yl}amino)butanamide] | > 2e-05 M | 8570 nM | –
4 | CC[C@@H](Nc1nc2ccccc2c2nc(-c3ccccc3S(C)(=O)=O)nn12)C(N)=O [Example 451, (2R)-2-({2-[2-(methanesulfonyl)phenyl][1,2,4]triazolo[1,5-c]quinazolin-5-yl}amino)butanamide] | 7.16e-06 M | 131 nM | –
5 | O=C1NCCCC[C@H]1Nc1nc2ccccc2c2nc(-c3ccccc3Br)nn12 [Example 452, (3R)-3-{[2-(2-bromophenyl)[1,2,4]triazolo[1,5-c]quinazolin-5-yl]amino}azepan-2-one] | 3.98e-09 M | 3.35 nM | –
6 | O=C1NCCCC[C@H]1Nc1nc2ccccc2c2nc(-c3ccccc3OC(F)(F)F)nn12 [Example 456, (3R)-3-({2-[2-(trifluoromethoxy)phenyl][1,2,4]triazolo[1,5-c]quinazolin-5-yl}amino)azepan-2-one] | 2.98e-09 M | 3.56 nM | –
7 | O=C1NCCCC[C@@H]1Nc1nc2ccccc2c2nc(-c3ccccc3OC(F)(F)F)nn12 [Example 457, (3S)-3-({2-[2-(trifluoromethoxy)phenyl][1,2,4]triazolo[1,5-c]quinazolin-5-yl}amino)azepan-2-one] | 9.89e-07 M | 78.3 nM | –
8 | O=C1NCCC[C@H]1Nc1nc2ccccc2c2nc(-c3ccccc3OC(F)(F)F)nn12 [Example 458, (3R)-3-({2-[2-(trifluoromethoxy)phenyl][1,2,4]triazolo[1,5-c]quinazolin-5-yl}amino)piperidin-2-one] | 6.37e-08 M | 28 nM | –
9 | O=C1NCC[C@H]1Nc1nc2ccccc2c2nc(-c3ccccc3OC(F)(F)F)nn12 [Example 459, (3R)-3-({2-[2-(trifluoromethoxy)phenyl][1,2,4]triazolo[1,5-c]quinazolin-5-yl}amino)pyrrolidin-2-one] | 7.9e-08 M | 30.2 nM | –
10 | O=C1NCCCCCC1Nc1nc2ccccc2c2nc(-c3ccccc3OC(F)(F)F)nn12 (stereo not shown) [Example 461, 3-({2-[2-(trifluoromethoxy)phenyl][1,2,4]triazolo[1,5-c]quinazolin-5-yl}amino)azocan-2-one] | 6.18e-09 M | 1.95 nM | –
11 | CCNC(=O)C(CC)Nc1nc2ccccc2c2nc(-c3ccccc3OC(F)(F)F)nn12 (stereo not shown) [Example 463, N-ethyl-2-({2-[2-(trifluoromethoxy)phenyl][1,2,4]triazolo[1,5-c]quinazolin-5-yl}amino)butanamide] | 2.94e-08 M | 1.88 nM | –
12 | CCC[C@@H](Nc1nc2ccccc2c2nc(-c3ccccc3OC(F)(F)F)nn12)C(=O)NC [Example 464, N-methyl-N^2-{2-[2-(trifluoromethoxy)phenyl][1,2,4]triazolo[1,5-c]quinazolin-5-yl}-D-norvalinamide] | 5.89e-08 M | 3.91 nM | –
13 | CCCNC(=O)[C@@H](C)Nc1nc2ccccc2c2nc(-c3ccccc3OC(F)(F)F)nn12 [Example 465, N-propyl-N^2-{2-[2-(trifluoromethoxy)phenyl][1,2,4]triazolo[1,5-c]quinazolin-5-yl}-D-alaninamide] | 1.34e-08 M | 3.87 nM | –
14 | CCCCNC(=O)CNc1nc2ccccc2c2nc(-c3ccccc3OC(F)(F)F)nn12 [Example 466, N-butyl-N^2-{2-[2-(trifluoromethoxy)phenyl][1,2,4]triazolo[1,5-c]quinazolin-5-yl}glycinamide] | 1.26e-07 M | 107 nM | –
15 | NC(=O)[C@@H](CO)Nc1nc2ccccc2c2nc(-c3ccccc3OC(F)(F)F)nn12 [Example 468, N^2-{2-[2-(trifluoromethoxy)phenyl][1,2,4]triazolo[1,5-c]quinazolin-5-yl}-D-serinamide] | 6.73e-08 M | 42.7 nM | –
16 | CC[C@@H](Nc1nc2ccccc2c2nc(-c3ccccc3OC(F)(F)F)nn12)C(N)=O [Example 469, (2R)-2-({2-[2-(trifluoromethoxy)phenyl][1,2,4]triazolo[1,5-c]quinazolin-5-yl}amino)butanamide] | 1.64e-08 M | 1.2 nM | –
17 | O=C1NCCCC[C@H]1Nc1nc2ccccc2c2nc(-c3ccccc3OC(F)F)nn12 [Example 470, (3R)-3-({2-[2-(difluoromethoxy)phenyl][1,2,4]triazolo[1,5-c]quinazolin-5-yl}amino)azepan-2-one] | 1.34e-09 M | 0.5 nM | –
18 | O=C1NCCCC[C@@H]1Nc1nc2ccccc2c2nc(-c3ccccc3OC(F)F)nn12 [Example 471, (3S)-3-({2-[2-(difluoromethoxy)phenyl][1,2,4]triazolo[1,5-c]quinazolin-5-yl}amino)azepan-2-one] | 5.6e-08 M | 5.26 nM | –
19 | O=C1NCCC[C@H]1Nc1nc2ccccc2c2nc(-c3ccccc3OC(F)F)nn12 [Example 472, (3R)-3-({2-[2-(difluoromethoxy)phenyl][1,2,4]triazolo[1,5-c]quinazolin-5-yl}amino)piperidin-2-one] | 3.72e-08 M | 38.1 nM | –
20 | O=C1NCC[C@H]1Nc1nc2ccccc2c2nc(-c3ccccc3OC(F)F)nn12 [Example 473, (3R)-3-({2-[2-(difluoromethoxy)phenyl][1,2,4]triazolo[1,5-c]quinazolin-5-yl}amino)pyrrolidine-2-one] | 5.1e-08 M | 17.9 nM | –
21 | O=C1NCCCCCC1Nc1nc2ccccc2c2nc(-c3ccccc3OC(F)F)nn12 (stereo not shown) [Example 474, 3-({2-[2-(difluoromethoxy)phenyl][1,2,4]triazolo[1,5-c]quinazolin-5-yl}amino)azocan-2-one] | 3.11e-09 M | 1.37 nM | –
22 | CC[C@H](Nc1nc2ccccc2c2nc(-c3ccccc3OC(F)F)nn12)C(N)=O [Example 475, (2S)-2-({2-[2-(difluoromethoxy)phenyl][1,2,4]triazolo[1,5-c]quinazolin-5-yl}amino)butanamaide] | > 2e-05 M | – | 71.7 nM
23 | CC[C@@H](Nc1nc2ccccc2c2nc(-c3ccccc3OC(F)F)nn12)C(N)=O [Example 476, (2R)-2-({2-[2-(difluoromethoxy)phenyl][1,2,4]triazolo[1,5-c]quinazolin-5-yl}amino)butanamide] | 3.93e-09 M | – | 0.554 nM
